Test [1] has as its target T1, wt (SH2-WT/BT2-WT) (Zea mays, UniProt P55241+Q947C0). To be noted: read-out: KM ATP. The text has this:
(§1) All V versus S plots were fitted using non-linear regression analysis and the following equation, v = VmaxS/(Km + S), where v is the measured velocity, Vmax is the maximum velocity, S is the substrate concentration.

Test [2] addresses K403R (Zea mays, UniProt P55241+Q947C0, K403R). Particulars: read-out: KM ATP.
Source text: as §1

Test [3] concerns the target T2, SH2-E (Zea mays, UniProt P55241+Q947C0, N131R/T142F/A160T/Q261S/A396S/V416I/C424V/S444A).
T2 construct: SH2-E with wild type BT2 (SH2-E/BT2-WT), E. coli, purified
T2 sequence (Q947C0 1-475): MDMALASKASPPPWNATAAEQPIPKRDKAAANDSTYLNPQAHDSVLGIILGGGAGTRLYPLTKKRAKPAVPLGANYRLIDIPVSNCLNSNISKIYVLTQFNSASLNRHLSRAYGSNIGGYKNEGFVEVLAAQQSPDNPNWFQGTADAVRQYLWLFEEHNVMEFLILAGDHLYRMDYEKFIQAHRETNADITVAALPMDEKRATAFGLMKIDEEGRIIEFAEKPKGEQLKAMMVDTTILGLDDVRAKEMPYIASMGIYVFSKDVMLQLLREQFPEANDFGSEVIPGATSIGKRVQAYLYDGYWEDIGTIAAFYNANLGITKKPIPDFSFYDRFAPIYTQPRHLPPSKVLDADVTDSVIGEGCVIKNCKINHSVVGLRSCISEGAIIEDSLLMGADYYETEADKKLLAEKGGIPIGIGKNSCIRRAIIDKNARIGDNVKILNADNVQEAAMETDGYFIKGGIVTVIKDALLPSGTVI
T2 sequence (P55241 46-516 N131R/T142F/A160T/Q261S/A396S/V416I/C424V/S444A): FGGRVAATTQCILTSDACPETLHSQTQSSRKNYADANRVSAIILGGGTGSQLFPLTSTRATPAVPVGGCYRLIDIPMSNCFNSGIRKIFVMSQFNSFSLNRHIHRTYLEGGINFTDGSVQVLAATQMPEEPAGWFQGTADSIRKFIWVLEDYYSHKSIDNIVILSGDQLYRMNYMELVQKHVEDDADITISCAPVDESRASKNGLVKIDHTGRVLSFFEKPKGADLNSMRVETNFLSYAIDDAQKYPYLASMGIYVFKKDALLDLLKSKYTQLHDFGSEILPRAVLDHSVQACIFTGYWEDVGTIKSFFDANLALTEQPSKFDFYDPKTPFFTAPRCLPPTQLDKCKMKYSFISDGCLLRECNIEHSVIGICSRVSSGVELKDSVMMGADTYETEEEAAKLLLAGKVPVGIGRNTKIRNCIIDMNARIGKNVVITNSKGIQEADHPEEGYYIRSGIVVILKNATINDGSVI
Nature of the test: Initial-rate assay without 3-PGA, ATP and G-1-P both varied (0.01-10 mM and 0.1-25 mM), global fit to a sequential mechanism. In kind it is biochemical. To be noted: read-out: ATP Km (absence of 3-PGA). The text has this: (§2) Activity in the absence of the activator 3PGA was examined. While 3PGA is a noted activator for plant AGPase, the mechanism of activation differs for the various AGPases. […] Thus, the term “activation fold” in the literature is merely an activity reported at single fixed substrate concentrations.
(§3) The small subunit mutant, MP, contains the first 198 amino acids of the small subunit of the maize endosperm enzyme and the last 277 amino acids from the potato tuber enzyme resulting in thirty-three amino acid sites that differ from the maize endosperm enzyme ([Cross et al., 2004]).

Test [4] deals with T3, SH2-E/BT2-BF (Zea mays, UniProt P55241+Q947C0, E123G/N131R/T142F/A160T/Q261S/R331K/A396S/K402R/V416I/C424V/S444A).
T3 construct: SH2-E co-expressed with BT2-BF, E. coli, purified
T3 sequence (Q947C0 1-475 E123G/R331K/K402R): T2 sequence (Q947C0 1-475) with E123G, R331K, K402R
T3 sequence (P55241 46-516 N131R/T142F/A160T/Q261S/A396S/V416I/C424V/S444A): T2 sequence (P55241 46-516 N131R/T142F/A160T/Q261S/A396S/V416I/C424V/S444A)
Described as above. Format: biochemical. To be noted: read-out: ATP Km (absence of 3-PGA).
Source text: as §2, §3

Test [5] has as its target T4, E123G, R331K, K402R (BT2-BF) (Zea mays, UniProt P55241+Q947C0, E123G/R331K/K402R).
T4 construct: BT2-BF with wild type SH2 (SH2-WT/BT2-BF), E. coli, purified
T4 sequence (Q947C0 1-475 E123G/R331K/K402R): T2 sequence (Q947C0 1-475) with E123G, R331K, K402R
T4 sequence (P55241 46-516): T2 sequence (P55241 46-516 N131R/T142F/A160T/Q261S/A396S/V416I/C424V/S444A) with R86N, F97T, T115A, S216Q, S351A, I371V, V379C, A399S
Described as above. In kind it is biochemical. To be noted: read-out: ATP Km (absence of 3-PGA).
Source text: as §2, §3

For test [6], the system named is T5, MP + SH2-E.
T5 construct: chimeric small subunit MP (maize 198 / potato 277 amino acids) with SH2-E
Described as above. Particulars: read-out: ATP Km (absence of 3-PGA). Format: biochemical.
Source text: as §2, §3

The target in test [7] is T1, wt (SH2-WT/BT2-WT). To be noted: read-out: ATP Km (absence of 3-PGA).
Source text: as §2, §3

Structures are written as SMILES. Residue numbers refer to the chain shown, from its start. Where two headings read alike, the source gives them in different places.

What is called Km is the substrate concentration at which the rate is half of its maximum.

T1 sequence (P55241 46-516, one chain of several): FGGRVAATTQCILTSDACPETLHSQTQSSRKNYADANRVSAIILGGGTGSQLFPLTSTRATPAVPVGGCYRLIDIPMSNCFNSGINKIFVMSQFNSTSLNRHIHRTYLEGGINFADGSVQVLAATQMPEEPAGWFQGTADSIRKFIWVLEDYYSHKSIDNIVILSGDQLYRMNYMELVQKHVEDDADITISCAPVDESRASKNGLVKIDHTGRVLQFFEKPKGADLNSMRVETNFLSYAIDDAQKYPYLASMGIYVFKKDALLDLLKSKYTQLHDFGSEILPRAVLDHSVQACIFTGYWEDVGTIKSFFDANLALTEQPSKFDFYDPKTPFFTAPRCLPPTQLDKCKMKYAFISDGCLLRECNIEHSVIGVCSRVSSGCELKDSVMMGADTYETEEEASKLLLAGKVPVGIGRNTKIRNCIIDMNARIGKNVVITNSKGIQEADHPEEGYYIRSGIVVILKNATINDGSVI
Chain of K403R (Q947C0 1-475 K403R): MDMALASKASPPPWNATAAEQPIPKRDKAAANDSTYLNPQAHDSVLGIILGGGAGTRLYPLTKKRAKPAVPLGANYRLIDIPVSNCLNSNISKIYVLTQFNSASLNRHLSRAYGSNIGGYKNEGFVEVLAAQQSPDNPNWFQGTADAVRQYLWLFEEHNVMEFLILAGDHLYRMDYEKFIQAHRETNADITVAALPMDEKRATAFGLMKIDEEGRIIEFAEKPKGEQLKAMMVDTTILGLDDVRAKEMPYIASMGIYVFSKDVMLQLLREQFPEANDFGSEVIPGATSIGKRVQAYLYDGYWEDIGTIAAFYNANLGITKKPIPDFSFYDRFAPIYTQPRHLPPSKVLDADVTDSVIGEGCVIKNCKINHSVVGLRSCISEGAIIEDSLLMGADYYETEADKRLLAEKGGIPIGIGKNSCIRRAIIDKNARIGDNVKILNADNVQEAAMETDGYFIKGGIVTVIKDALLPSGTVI
Chain of K403R (P55241 46-516): as the sequence (P55241 46-516, one chain of several) above

For `Nc1ncnc2c1ncn2[C@@H]1O[C@H](COP(=O)(O)OP(=O)(O)OP(=O)(O)O)[C@@H](O)[C@H]1O` [ATP, adenosine 5'-triphosphate], the Km in test [1] amounted to 75 ± 18 µM; in test [2], 75 ± 13 µM; in test [3], 2500 ± 430 µM; in test [4] it was 2410 ± 350 µM; in test [5] it was 300 ± 250 µM; in test [6], 320 ± 21 µM. Also, the Km in test [7] amounted to 4000 µM.

The values above are taken from article PMC6300691, “Enhancement of Heat Stability and Kinetic Parameters of the Maize Endosperm ADP-Glucose Pyrophosphorylase by Mutagenesis of Amino Acids in the Small Subunit With High B Factors” (Frontiers in Plant Science, 2018).
